Measured values: patent US8173428B2, “LNA oligonucleotides and the treatment of cancer” (Santaris Pharma A/S, priority 2004, dated 2012)
Oligonucleotides are written 5' to 3', each unit as a sugar letter and its base; * is a phosphorothioate linkage, no mark a phosphodiester; rarer units and linkages stand in square brackets, end groups in braces. Plain capitals give the bases only. l = locked nucleic acid (LNA); [5mC] = 5-methylcytosine; d = 2'-deoxy (DNA)

Legend:
cynomolgus monkeys = assay: i.v. MTD study in cynomolgus monkeys; assay type: in vivo; details: dose escalation up to 160 mg/kg×3 (total 930 mg/kg) or 120 mg/kg×5 over 2 weeks
Experimental: The animals were treated with either a dose escalating design with a maximum dose of 160 mg/kg×3 (total dose of 930 mg/kg) or a 120 mg/kg×5 over 2 weeks.

Survivin protein = assay: Western blot analysis of Survivin protein levels in transfected 15PC3 cells; assay type: cell-based, human; details: 1, 10 and 25 nM, 12, 24 and 48 hours, compared with mock
Experimental: (§1) Cell culturing and transfections: 15PC3 cells were seeded in 12-well plates and grown for two days at 37° C. (5% CO2) in DMEM supplemented with 10% FBS, Glutamax I and Gentamicin. When the cells were 60-70% confluent, they were transfected in duplicates with different concentrations of oligonucleotides (0.2-25 nM) using Lipofectamine 2000 (10 μg/ml). Transfections were carried out essentially as described by Dean et al. (1994, JBC 269:16416-16424). In short, cells were incubated for 10 min. with Lipofectamine in OptiMEM followed by addition of oligonucleotide to a total volume of 0.5 ml transfection mix per well. After 4 hours, the transfection mix was removed, cells were washed and grown at 37° C. for approximately 20 hours (mRNA analysis) or 12-72 hours (protein analysis) in the appropriate growth medium. Cells were then harvested for protein and RNA analysis.
The in vitro effect of Survivin oligoes on Survivin protein levels in transfected cells was determined by Western Blotting.
Cells were harvested and lysed in 50 mM Tris-HCl pH 6.8, 10% glycerol, 2.5% SDS, 5 mM DTT and 6 M urea supplemented with protease inhibitor cocktail (Roche). Total protein concentrations were measured using a BCA protein assay kit (Pierce). 50 μg total protein was run on a 12% Bis-Tris gels in MOPS buffer and blotted onto a PVDF membranes according to manufacture's instructions (Invitrogen). […]

[1] = system: Survivin full length, Survivin2B and SurvivinΔex3 mRNA; assay: Survivin splice variant mRNA expression by real-time PCR in 15PC3 cells; assay type: cell-based, human; details: 5 nM, normalised to GAPDH, relative to mock
Experimental: as §1, with “After 4 hours, the transfection mix was removed, cells were washed and grown at 37° C. for approximately 20 hours (mRNA analysis) or 12-72 hours (protein analysis) in the appropriate growth medium. Cells were then harvested for protein and RNA analysis.” left out
To determine the relative Survivin mRNA level in oligonucleotide treated and untreated cells, the generated cDNA was used in quantitative PCR analysis using an iCycler from BioRad. The cDNA was diluted 5-fold and 8 μl was mixed with 52 μl Taqman probe master mix containing 30 μl Platinum Quantitative PCR SuperMix UDG 2×PCR master mix (Invitrogen), 3 μl 20× Taqman probe and primer mix (forward primer: 5′[…] (SEQ ID NO:29), final 0.9 μM. Reverse primer: 5′[…] (SEQ ID NO:30), final 0.6 μM and taqman probe: FAM-[…]-TAMRA (SEQ ID NO:31), final 0.1 μM) and 19 μl H2O. […]
The primers and probe were obtained from Proligonucleotide (France). […] Relative quantities of Survivin mRNA were determined from the calculated threshold cycle using the iCycler IQ Real Time Detection System software.

[2] = Stability in mouse plasma; assay type: in vitro ADME; details: 20 μM, 37° C., up to 96 hours
Experimental: Stability of 20 μM SEQ ID NO. 2 and SEQ ID NO. 24 in human and mouse plasma (Li-Heparine (Taconic, M&B)) at 37° C. at different time aliquots: 0, 1, 2, 4, 24, 48 and 96 hours. A commercially available ladder was also included (10 and 20 mer are visible on the PAGE). (see FIG. 1)

In the case of “5′-^MeCsTs^MeCsAsastscscsastsgsgs^MeCsAsGsc-3′ (l[5mC]*lT*l[5mC]*lA*dA*dT*dC*dC*dA*dT*dG*dG*l[5mC]*lA*lG*dC) [SEQ ID NO. 2]”, the clinical signs (cynomolgus monkeys) is reported as “no notable clinical signs”, the “liver and kidney toxicity” value (cynomolgus monkeys) is reported as “evidence of liver and kidney toxicity was apparent in all animals” and the “Survivin protein expression by Western blotting” value (Survivin protein) is reported as “Survivin protein down-regulation”. The “Expression of the 3 isoforms of Survivin mRNA” value [1] was “able to down-regulate all expressed isoforms of human Survivin” and the “Stability in mouse plasma (degradation products)” value [2] was “No degradation products”.
